Source: the NIST ThermoML archive (doi:10.1021/je400781b)

Legend:
[1] = 101 kPa, Liquid; for speed of sound: Frequency=2.75 MHz, Pulse-echo method; for mass density: Vibrating tube method
[2] = refractive index (Na D-line) (dimensionless); conditions: 298.15 K; 101.33 kPa; Liquid; Standard Abbe refractometry
[3] = xn = mol fraction of the nth substance listed; conditions: 101 kPa, Liquid, x2 = 0; for speed of sound: Frequency=2.75 MHz, Pulse-echo method; for mass density: Vibrating tube method

CCCC[n+]1ccn(C)c1.O=S(=O)([N-]S(=O)(=O)C(F)(F)F)C(F)(F)F
[1]
Conditions | mass density [kg/m3] | speed of sound [m/s]
293.15 K | 1439.23 | 1237.9
298.15 K | 1434.44 | 1226.7
303.15 K | 1429.65 | 1215.6
308.15 K | 1424.88 | 1204.6
313.15 K | 1420.12 | 1193.7

Conditions | refractive index
[2] | 1.4265

CC#N [acetonitrile]
[1]
Conditions | mass density [kg/m3] | speed of sound [m/s]
293.15 K | 782 | 1298.2
298.15 K | 776.6 | 1277.7
303.15 K | 771.18 | 1257.2
308.15 K | 765.72 | 1236.9
313.15 K | 760.24 | 1216.6

Conditions | refractive index
[2] | 1.3416

CC#N [acetonitrile] + CCCC[n+]1ccn(C)c1.O=S(=O)([N-]S(=O)(=O)C(F)(F)F)C(F)(F)F
[3]
Conditions | mass density [kg/m3] | speed of sound [m/s]
293.15 K | 782 | 1298.2
298.15 K | 776.6 | 1277.7
303.15 K | 771.18 | 1257.2
308.15 K | 765.72 | 1236.9
313.15 K | 760.24 | 1216.6

C1CCOC1 [tetrahydrofuran]
[1]
Conditions | mass density [kg/m3] | speed of sound [m/s]
293.15 K | 887.52 | 1301.9
298.15 K | 882.06 | 1277.5
303.15 K | 876.57 | 1253.2
308.15 K | 871.04 | 1229

Conditions | refractive index
[2] | 1.4052

C1CCOC1 [tetrahydrofuran] + CCCC[n+]1ccn(C)c1.O=S(=O)([N-]S(=O)(=O)C(F)(F)F)C(F)(F)F
[3]
Conditions | mass density [kg/m3] | speed of sound [m/s]
293.15 K | 887.52 | 1301.9
298.15 K | 882.06 | 1277.5
303.15 K | 876.57 | 1253.2
308.15 K | 871.04 | 1229
